Assay results published in patent publication US9695155B2, “Herbicidal substituted pyrimidinyloxy benzene compounds” (E. I. DU PONT DE NEMOURS AND COMPANY, priority 2013, dated 2017).

Test system: kochia
Assay: Test E postemergence
Type: in vivo, Kochia scoparia
Excerpt: Seeds of plant species selected from corn (Zea mays), soybean (Glycine max), velvetleaf (Abutilon theophrasti), lambsquarters (Chenopodium album), wild poinsettia (Euphorbia heterophylla), palmer pigweed (Amaranthus palmeri), waterhemp (common waterhemp, Amaranthus rudis), surinam grass (Brachiaria decumbens), large (Lg) crabgrass (Digitaria sanguinalis), Brazilian crabgrass (Digitaria horizontalis), fall panicum (Panicum dichotomiflorum), giant foxtail (Setaria faberii), green foxtail (Setaria viridis), goosegrass (Eleusine indica), johnsongrass (Sorghum halepense), ragweed (common ragweed, Ambrosia elatior), barnyardgrass (Echinochloa crus-galli), sandbur (southern sandbur, Cenchrus echinatus), arrowleaf sida (Sida rhombifolia), Italian ryegrass (Lolium multiflorum), dayflower (Virginia (VA) dayflower, Commelina virginica), field bindweed (Convolvulus arvensis), morningglory (Ipomoea coccinea), nightshade (eastern black nightshade, Solanum ptycanthum), kochia (Kochia scoparia), yellow nutsedge (Cyperus esculentus), cocklebur (common cocklebur, Xanthium strumarium), smartweed (ladysthumb smartweed, and hairy beggarticks (Bidens pilosa), were planted into a silt loam soil and treated preemergence with test chemicals formulated in a non-phytotoxic solvent mixture which included a surfactant.
At the same time, plants from these crop and weed species and also horseweed (Canada horseweed, Conyza canadensis), waterhemp_RES1, (ALS & Triazine resistant common waterhemp, Amaranthus rudis), and waterhemp_RES2, (ALS & HPPD resistant common waterhemp, Amaranthus rudis) were planted in pots containing Redi-Earth® planting medium (Scotts Company, 14111 Scottslawn Road, Marysville, Ohio 43041) comprising spaghnum peat moss, vermiculite, wetting agent and starter nutrients were treated with postemergence applications of test chemicals formulated in the same manner. Plants ranged in height from 2 to 18 cm for postemergence treatments (1- to 4-leaf stage). Treated plants and controls were maintained in a greenhouse for 14 to 21 days, after which time all species were compared to controls and visually evaluated. Plant response ratings, summarized in Table E, are based on a scale of 0 to 100 where 0 is no effect and 100 is complete control. A dash (-) response means no test result.

## Clc1cnc(Oc2cccc(Cl)c2-n2cc(I)cn2)nc1 [Compound 181]
Postemergence, 31 g ai/ha, scale 0 to 100
  Plant response rating, Kochia: 60
Postemergence, 62 g ai/ha, scale 0 to 100
  Plant response rating, Kochia: 50
Postemergence, 125 g ai/ha, scale 0 to 100
  Plant response rating, Kochia: 90
postemergence, 16 g ai/ha, scale 0 to 100, 0 no effect, 100 complete control
  Plant response rating, Kochia: 35
